Laboratory results: PubChem BioAssay (NCI)
Values joined by “and” are separate entries in the source; they are usually repeats but may differ in a detail not shown here. Identical values can stand only once.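 All cell lines were grown in 96-well plates and treated with compound for 48 hours. Abbreviation: GI50, concentration required for 50% inhibition of growth. Definition used: TGI = concentration required for complete inhibition of growth.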

Tests used:
Test in all cases: NCI anticancer screen, dose series, 48 h
COLO 205 colon = system: COLO 205 colon
TK-10 renal = system: TK-10 renal
UACC-257 melanoma = system: UACC-257 melanoma
SW-620 colon = system: SW-620 colon
EKVX NSCLC = system: EKVX NSCLC
HS 578T breast = system: HS 578T breast
HL-60(TB) leukemia = system: HL-60(TB) leukemia
BT-549 breast = system: BT-549 breast
MCF7 breast = system: MCF7 breast
HCC-2998 colon = system: HCC-2998 colon

Compound	TGI (COLO 205 colon)	TGI (TK-10 renal) [µM]	TGI (UACC-257 melanoma) [µM]	TGI (SW-620 colon)	TGI (EKVX NSCLC)	TGI (HS 578T breast) [µM]	TGI (HL-60(TB) leukemia)	TGI (BT-549 breast) [µM]	TGI (MCF7 breast)	TGI (HCC-2998 colon)	GI50 (HCC-2998 colon)	GI50 (HL-60(TB) leukemia)	GI50 (BT-549 breast) [µM]	GI50 (SW-620 colon) [µM]	GI50 (EKVX NSCLC) [µM]
COC(=O)C1CCC(=O)N1C(=O)Cc1ccc(OC)cc1 (configuration not stated)	> 100 µM	> 100	> 100	> 100 µM	> 100 µM	–	–	–	–	–	–	–	–	–	–
COc1nc2c(c(=O)n1C)N[C@H]1[C@H](OC(C)=O)[C@@H](OC(C)=O)CO[C@H]1N2	> 100 µM	> 100	> 100	> 100 µM	> 100 µM	> 100	> 100 µM	> 100	> 100 µM	–	–	–	–	–	–
N/N=C1/C2CN3CCN(C2)CC1(c1ccc([N+](=O)[O-])cc1)C3	> 100 µM	> 100	> 100	> 100 µM	> 100 µM	> 100	> 100 µM	> 100	> 100 µM	–	–	–	–	–	–
N#Cc1nc(CCCCCN2C(=O)c3ccccc3C2=O)oc1N	> 100 µM	> 100	> 100	> 100 µM	> 100 µM	> 100	–	> 100	> 100 µM	> 100 µM	–	–	–	–	–
C/C(=N\NC(=S)N1CCCCC1)c1cccc(C)n1	13.7 µM	21.3	12.1	18.3 µM	31.2 µM	> 100	–	5.5	–	21.8 µM	–	–	–	–	–
Clc1ccc(N2N=C(c3cccc(Nc4ccncc4)c3)CC2c2ccc3c(c2)OCO3)cc1 (configuration not stated)	–	–	–	3.15 µM	13.3 µM	–	4.16 µM	28.6	–	3.2 µM	1.79 µM	1.93 µM	4.92	1.63	2.9
Cc1cc(O)c(C(C)C)cc1SC#N	40.5 µM	31.8	38.1	44.5 µM	–	67.4	> 100 µM	36.4	31.6 µM	32.9 µM	–	–	–	–	–
CN(C)c1nc(N(C)C)nc(N(C)C23CC4CC(CC(C4)C2)C3)n1	32.7 µM	–	> 100	> 100 µM	> 100 µM	–	–	63.4	> 100 µM	85.3 µM	–	–	–	–	–
CO/C(=N\N=C\c1cccc(Cl)c1)c1ccncc1	> 10 µM	> 10	> 10	> 10 µM	> 10 µM	–	> 10 µM	> 10	> 10 µM	> 10 µM	–	–	–	–	–
Cc1ccc(C(C)(C)C[P+](C)(c2ccccc2)c2ccccc2)cc1	18.7 µM	–	> 26.7	> 100 µM	> 100 µM	–	7.56 µM	–	> 81.2 µM	> 70.3 µM	–	–	–	–	–
O=C(/C(=C\C(=O)c1cccs1)c1ccsc1)c1ccc(Br)cc1	> 100 µM	> 100	> 100	> 100 µM	> 100 µM	> 100	> 100 µM	–	> 100 µM	> 100 µM	–	–	–	–	–
COc1nc(N(C)C)nc2c1n(C)c[n+]2C	> 100 µM	> 100	> 100	> 100 µM	> 100 µM	> 100	> 100 µM	> 100	–	–	–	–	–	–	–
COc1cc2nc(-c3ccc4ccccc4c3)[nH]c(=O)c2cc1OC	> 100 µM	–	> 100	–	> 100 µM	> 100	> 100 µM	> 100	> 100 µM	> 100 µM	–	–	–	–	–
C/C=C\C(CC(=O)NCCc1cn(C(=O)OCc2ccccc2)c2ccccc12)CC(=O)OC (configuration not stated)	> 100 µM	> 100	> 100	> 100 µM	> 100 µM	> 100	–	> 100	> 100 µM	> 100 µM	–	–	–	–	–
Cc1nc2c3c(ncn2n1)Oc1c(c(-c2ccccc2)nn1-c1ccccc1)C3c1ccc(Cl)cc1 (configuration not stated)	> 100 µM	> 100	> 100	> 100 µM	> 100 µM	74.1	–	–	> 100 µM	> 100 µM	–	–	–	–	–
CC1OC2=N[C@@H]1C(=O)N[C@@H](C(C)C)C1=N[C@H](C(=O)N[C@@H](C(C)C)C3=N[C@H](C(=O)N[C@@H](C(C)C)C4=N[C@H](C(=O)N[C@H]2C(C)C)C(C)O4)C(C)O3)C(C)O1 (some centres not stated)	> 10 µM	> 10	> 10	> 10 µM	> 10 µM	> 10	> 10 µM	–	> 10 µM	> 10 µM	–	–	–	–	–
NC(=S)N/N=C\c1ccc(OCc2cccc(COc3ccc(/C=N/NC(N)=S)cc3)n2)cc1	> 100 µM	> 100	> 100	> 100 µM	> 100 µM	> 100	> 100 µM	12.2	> 100 µM	–	–	–	–	–	–
CC(=O)OCC1OC(n2c3c(c(-c4cccc5ccccc45)c(C#N)c2=S)CCCC3)C(OC(C)=O)C(OC(C)=O)C1OC(C)=O (configuration not stated)	> 100 µM	> 100	> 100	> 100 µM	> 100 µM	–	> 100 µM	–	> 100 µM	> 100 µM	–	–	–	–	–

Compound	TGI (COLO 205 colon)	TGI (TK-10 renal) [µM]	TGI (UACC-257 melanoma) [µM]	TGI (SW-620 colon)	TGI (EKVX NSCLC)	TGI (HS 578T breast) [µM]	TGI (HL-60(TB) leukemia)	TGI (BT-549 breast) [µM]	TGI (MCF7 breast)	TGI (HCC-2998 colon)	GI50 (HCC-2998 colon)	GI50 (HL-60(TB) leukemia)	GI50 (BT-549 breast) [µM]	GI50 (SW-620 colon) [µM]	GI50 (EKVX NSCLC) [µM]
COc1cccc(CC(C)NCC(O)c2ccc(O)c(O)c2)c1 (configuration not stated)	> 100 µM	> 100	> 100	> 100 µM	> 100 µM	> 100	–	> 100	> 100 µM	–	–	–	–	–	–
CCOC(=O)C(=[N+]=[N-])C(=O)Nc1nn2nnnc2c2ccccc12	> 100 µM	–	> 100	> 100 µM	> 100 µM	–	> 100 µM	> 100	> 100 µM	> 100 µM	–	–	–	–	–
O=C(NCc1cccc(C(F)(F)F)c1)c1cc2sccc2nc1C(F)(F)F	> 100 µM	> 100	> 100	> 100 µM	> 100 µM	94.1	–	> 100	> 100 µM	–	–	–	–	–	–
Nc1cccc2c1C(=O)c1cccc(N)c1C2=O	> 100 µM	> 100	> 100	> 100 µM	> 100 µM	–	–	–	–	> 100 µM	–	–	–	–	–
CC1(C)OCC(C(O)C2OC(C)(C)OC2C=O)O1 (configuration not stated)	> 100 µM	> 100	> 100	> 100 µM	> 100 µM	> 100	–	–	> 100 µM	–	–	–	–	–	–
O=[N+]([O-])c1ccc(S[C@@H]2[C@H]3c4c(-c5ccccc5)[nH]c(-c5ccccc5)c4[C@@H]2C[C@H]3Cl)cc1	> 100 µM	> 100	> 100	> 100 µM	–	72.2	24.3 µM	9.78	16.5 µM	–	–	–	–	–	–
CCOC(=O)c1c(N2CCCC2)ncn(-c2ccccc2)c1=S	> 100 µM	> 100	> 100	> 100 µM	> 100 µM	> 100	> 100 µM	> 100	–	> 100 µM	–	–	–	–	–
COC1OC(Cc2nnc(C)o2)C(OCc2ccccc2)C(OCc2ccccc2)C1OCc1ccccc1 (configuration not stated)	44.1 µM	–	36.9	> 100 µM	35.5 µM	> 100	76.3 µM	83.1	49.7 µM	–	–	–	–	–	–
Cn1nc2n(c1=O)CCCN2	> 100 µM	> 100	> 100	> 100 µM	> 100 µM	> 100	> 100 µM	–	–	> 100 µM	–	–	–	–	–
CC(=O)/C(=C/n1c(=S)[nH]c2ccccc21)C(=O)Nc1ccccc1C	> 100 µM	> 100	> 100	> 100 µM	> 100 µM	–	> 100 µM	> 100	–	> 100 µM	–	–	–	–	–
C/C(=C\c1ccccn1)c1ccccn1	> 100 µM	> 100	> 100	–	> 100 µM	> 100	–	> 100	> 100 µM	> 100 µM	–	–	–	–	–
Cc1cc(=O)n2nc(SCc3ccccc3)sc2n1	> 100 µM	> 100	–	> 100 µM	–	> 100	> 100 µM	> 100	> 100 µM	> 100 µM	–	–	–	–	–
c1ccc(CCN2CCc3[nH]c4ccccc4c3C2)cc1	> 10 µM	51.7	30.4	29.6 µM	> 100 µM	–	41.7 µM	–	40.9 µM	30.5 µM	–	–	–	–	–
O=C(CCN1CCCC1)Nc1ccc2sc3ccccc3c(=O)c2n1	16.3 µM	–	17	19.9 µM	20.1 µM	18.2	16.3 µM	19.2	21.3 µM	17 µM	–	–	–	–	–
CN(C)CCNC(=O)c1ccc(NCCCN(C)CCCNc2ccc3c(=O)n(CCN(C)C)c(=O)n4c5ccccc5c(=O)c2c34)c2c(=O)c3ccccc3[nH]c12	0.353 µM	0.687	0.718	–	0.567 µM	–	0.273 µM	1.25	0.344 µM	0.146 µM	–	–	–	–	–
Nc1nc(-c2ccccc2N=NN2CCCC2)nc2ccccc12	10.4 µM	14.5	14.9	5.96 µM	23.8 µM	18	–	24.1	55.9 µM	–	–	–	–	–	–
Cc1ccccc1-n1c(C)nc2c1C(=O)c1ccccc1C2=O	–	> 100	> 100	> 100 µM	> 100 µM	–	87.5 µM	–	–	> 100 µM	–	–	–	–	–
[Cl][Pt+2][Cl].[NH-]C1CCCCC1[NH-] (configuration not stated)	> 49.5 µM and > 70.4 µM and 13.6 µM	–	> 96.6	44.1 µM and > 56.4 µM and 13.1 µM	> 100 µM and 55.2 µM and 31.1 µM	–	4.49 µM and 8.45 µM and 1.89 µM	–	> 37 µM and > 100 µM and 10.1 µM	> 100 µM and 24.2 µM	42.6 µM and 17.2 µM and 4.67 µM	0.884 µM and 1.46 µM and 0.199 µM	–	–	–
